Assays:
[1] = Measurement of imaging sensitivity (phantom experiment), 19F MRI; parameters: key to detectability as image at 500 mM / detectability as image at 100 mM / detectability as image at 50 mM / detectability as image at 10 mM / detectability as image at 5 mM / detectability as image at 1 mM / detectability as image at 500 μM / detectability as image at 100 μM: .smallcircle.: detectable as clear image; Δ: margially detectable as image; x: undetectable; details: 1.5 T; for detectability as image at 100 μM / detectability as image at 500 μM / detectability as image at 1 mM / detectability as image at 5 mM / detectability as image at 10 mM / detectability as image at 50 mM / detectability as image at 100 mM / detectability as image at 500 mM: 20 min, complexes GRASS TR 10/TE 2 msec, 5-FU spin echo TR 4500/TE 100 msec
Procedure: Measurement of imaging sensitivity (phantom experiment)
Each of metal complex solution with various concentration of the present invention was sealed in cylindrical acryl phantom with an inner diameter of 1 cm and a height of 10 cm and subject to imaging. SIGNA (1.5 T) available from GE was used as an MRI apparatus, and imaging was performed by using a surface coil 13 cm in diameter for fluorine. A GRASS method was used as a pulse sequence and measurement condition was as followed:
TR (repetition time)=10 msec;
The measurement was performed for 20 min., and the number of acquisition was 937. As references, alkaline aqueous solutions of 5-fluorouracil with various concentrations were imaged by an identical apparatus. […] The imaging time was 20 min., and the number of acquisition was twice. […] In contrast, each metal complex compound of the present […] of 0.5 mM to 5 mM.

[2] = Measurement of relaxation time (T1 and T2 of intramolecular fluorine atoms) by 90 MHz NMR; assay type: physicochemical; parameters: unit not given here; details: 10mM aqueous solution

Compound | detectability as image at 100 μM [1] | detectability as image at 500 μM [1] | detectability as image at 1 mM [1] | detectability as image at 5 mM [1] | detectability as image at 10 mM [1] | detectability as image at 50 mM [1] | detectability as image at 100 mM [1] | detectability as image at 500 mM [1] | concentration required for detection as a clear image ([1]; 20 min imaging) [mM] | T1 [2] | T2 [2]
O=c1[nH]cc(F)c(=O)[nH]1 [Compound 5-FU, 5-fluorouracil, reference compound] | x | x | x | x | x | Δ | Δ | .smallcircle. | ≥ 500 | – | –
O=C(O)CN1CCCN(CC(=O)O)CCN(Cc2ccc(C(F)(F)F)cc2)CCCN(CC(=O)O)CC1.[Gd] [Compound-3] | x | x | Δ | Δ | .smallcircle. | .smallcircle. | .smallcircle. | .smallcircle. | – | – | –
O=C(O)CN1CCCN(CC(=O)O)CCN(Cc2cc(C(F)(F)F)cc(C(F)(F)F)c2)CCCN(CC(=O)O)CC1.[Gd] [Compound-4, gadolinium complex of 1-[3,5-bis(trifluoromethyl)benzyl]-,1,4,8,11-tetraazacyclotetradecane-4,8,11-triacetic acid] | x | Δ | .smallcircle. | .smallcircle. | .smallcircle. | .smallcircle. | .smallcircle. | .smallcircle. | – | 2.16 | 1.82
O=C(O)CN1CCCN(Cc2cc(C(F)(F)F)cc(C(F)(F)F)c2)CCN(CC(=O)O)CCCN(Cc2cc(C(F)(F)F)cc(C(F)(F)F)c2)CC1.[Gd] [Compound-5] | x | Δ | .smallcircle. | .smallcircle. | .smallcircle. | .smallcircle. | .smallcircle. | .smallcircle. | – | – | –
O=C(O)CN1CCN(CC(=O)O)CCN(Cc2cc(C(F)(F)F)cc(C(F)(F)F)c2)CCN(CC(=O)O)CC1.[Gd] [Compound-8, gadolinium complex of 1-[3,5-bis(trifluoromethyl)benzyl]1,4,7,10-tetraazacyclododecane-4,7,10-triacetic acid] | – | – | – | – | – | – | – | – | – | 2.11 | 1.79
O=C(O)CN1CCCN(CC(=O)O)CCN(Cc2ccc(C(C(F)(F)F)(C(F)(F)F)C(F)(F)F)cc2)CCCN(CC(=O)O)CC1.[Gd] [Compound-10, gadolinium complex of 1-[4-[tris(trifluoromethyl)methyl]benzyl]-1,4,8,11-tetraazacyclotetradecane-4,8,11-triacetic acid] | – | – | – | – | – | – | – | – | – | 3.27 | 2.83
O=C(O)CN1CCCN(CC(=O)O)CCN(Cc2ccc(/C=C/c3cc(C(F)(F)F)cc(C(F)(F)F)c3)cc2)CCCN(CC(=O)O)CC1.[Gd] [Compound-13, gadolinium complex of 1-[4-[2-trans-(3,5-bis(trifluoromethyl)phenyl)vinyl]benzyl]-1,4,8,11-tetraazacyclotetradecane-4,8,11-triacetic acid] | x | x | Δ | .smallcircle. | .smallcircle. | .smallcircle. | .smallcircle. | .smallcircle. | – | 12.6 | 9.31
O=C(O)CN1CCCN(CC(=O)O)CCN(CC(=O)O)CCCN(CCN(Cc2cc(C(F)(F)F)cc(C(F)(F)F)c2)Cc2cc(C(F)(F)F)cc(C(F)(F)F)c2)CC1.[Gd] [Compound-20, gadolinium complex of 1-[N""',N""'-bis[3,5-bis(trifluoromethyl)benzyl]aminoethyl]-1,4,8,11-tetraazacyclotetradecane-4,8,11-triacetic acid] | Δ | Δ | .smallcircle. | .smallcircle. | .smallcircle. | .smallcircle. | .smallcircle. | .smallcircle. | – | – | –
O=C(O)CN1CCCN(CC(=O)O)CCN(Cc2cc(C(F)(F)F)cc(C(F)(F)F)c2)CCCN(CC(=O)O)CC1.[Cu] [Compound-23, copper complex of 1-[3,5-bis(trifluoromethyl)benzyl]-1,4,8,11-tetraazacyclotetradecane-4,8,11-triacetic acid] | x | x | Δ | .smallcircle. | .smallcircle. | .smallcircle. | .smallcircle. | .smallcircle. | – | 36.5 | 24.9
O=C([O-])CN1CCCN(CC(=O)[O-])CCN(Cc2cc(C(F)(F)F)cc(C(F)(F)F)c2)CCCN(CC(=O)[O-])CC1.[Cr+3] [Compound-24, chromium complex of 1-[3,5-bis(trifluoromethyl)benzyl]-1,4,8,11-tetraazacyclotetradecane-4,8,11-triacetic acid] | – | – | – | – | – | – | – | – | – | 15.5 | 10.4
gadolinium complex of 1-[N""'-[3,5-bis(trifluoromethyl)benzyl]aminoethyl]-1,4,8,11-tetraazacyclotetradecane-4,8,11-triacetic acid [Compound-21] | – | – | – | – | – | – | – | – | – | 6.34 | 4.21
gadolinium complex with 1-(2,2,2-trifluoroethyl)-1,4,8,11-tetraazacyclodecane-4,8,11-tetraacetic acid [Compound-1] | – | – | – | – | – | – | – | – | – | 1.73 | 1.58
